Test results published in patent US20250352521A1, “FIXED DOSAGE ANTIBIOTIC COMPOSITIONS” (Entasis Therapeutics Limited, priority 2021, published 2025).

Columns and labels:
[1] = Bulk and tapped density analyses according to USP, with calculated compressibility index and Hausner ratio; assay type: physicochemical
Experimental: Bulk and tapped density analyses of DUR sodium salt were performed according to USP and the compressibility index (CI) and Hausner ratio was calculated. Typically, a material is considered to have poor flowability if the Hausner ratio is greater than 1.25 and/or if the CI is greater than 25. See e.g., Leroy A. Sherrington, Amal Sherrington, in Analytical Profiles of Drug Substances and Excipients, 1998. […] These experimental values are consistent with the observed powder adhesion.
It has now been found, however, that co-lyophilizing durlobactam sodium salt and sulbactam sodium salt improved flow properties compared to lyophilized durlobactam sodium alone. Initial experiments involved dissolving a 1:1 w/w mixture of durlobactam sodium salt and sulbactam sodium salt in water-for-injection and optimizing the bulk lyophilization conditions (per scale).

[2] = Dry powder filling / machinability trials: powder adhesion to filling equipment; assay type: physicochemical; settings: machine filling of glass vials
Excerpt: Initial attempts to formulate a fixed dosage comprised dry powder filling both DUR sodium salt and SUL sodium salt in glass vials. […] The drawback leads to unreliable and inconsistent product dosing. […] See e.g., the Exemplification section below.
Attempts to develop a commercially feasible fixed-dose combination of durlobactam and sulbactam by dry powder filling both DUR sodium salt and SUL sodium salt (as a 1:1 w/w mixture of each salt form) in glass vials were not successful because of the highly hygroscopic, poor flow properties of DUR sodium salt. […] See e.g., FIG. 1, showing the DUR sodium salt powder residue from the centralized suction and on the feeding chute observed during machinability trials. See also FIG. 2 which depicts the appearance of the DUR sodium salt powder filled product.

[3] = tested on: class A, C, and D β-lactamases; settings: cited from earlier work
Enterobacteriaceae = settings: in vitro; cited from earlier work
[4] = tested on: A. baumannii complex (ABC) isolates; settings: cited from earlier work
[5] = calculated from bulk and tapped density

| Compound | Bulk density [1] [g/mL] | Flowability as indicated by Hausner ratio and CI [1] | Tapped density [1] [g/mL] | CI (compressibility index) [1, 5] [%] | Hausner ratio [1, 5] | Hausner ratio ([1]; calculated from bulk and tapped density, listed as DUR sodium salt) | Powder adhesion to the parts of the filling equipment [2] | Inhibition of β-lactamases [3] | Intrinsic antibacterial activity (Enterobacteriaceae) | Restoration of in vitro activity of sulbactam ([4]; in combination with sulbactam) | Intrinsic activity ([4]; in vitro, durlobactam alone) |
| --- | --- | --- | --- | --- | --- | --- | --- | --- | --- | --- | --- |
| CC1=C[C@@H]2CN(C(=O)N2OS(=O)(=O)[O-])[C@@H]1C(N)=O.[Na+] [DUR-Na salt, Durlobactam] | 0.38 | extremely poor flowing material | 0.61 | 38 | 1.6 | > 1.6 | significant powder adhesion | – | – | – | – |
| CC1=C[C@@H]2CN(C(=O)N2OS(=O)(=O)O)[C@@H]1C(N)=O [Durlobactam] | – | – | – | – | – | – | – | potent inhibition | intrinsic antibacterial activity against some Enterobacteriaceae | restores the in vitro activity of sulbactam | no significant intrinsic activity |
